Series [1] relates to Cox standard strain albino male mice (extensor tonic convulsions). In words: electroshock induced convulsion inhibition assay (E.S.). In kind it is in vivo. To be noted: for ED50: Mus musculus, po, 1 h, by gavage, 60 minutes before 0.1 second, 50 milliampere corneal electroshock, inhibition of extensor tonic convulsions in one half of mice. How it is done:
(§1) In the electroshock induced convulsion inhibition assay (E.S.), the compound to be tested was dissolved in water (5%--sufficient hydrochloric acid was added for those compounds which were not isolated as a salt in order to effect dissolution) and administered by gavage to each of three Cox standard strain albino male mice (18-24 g.) at the dose level being investigated. Sixty minutes after compound administration, the mice were subjected to a 0.1 second, 50 milliampere electroshock through corneal electrodes. The animals were examined and evaluated immediately after the electroshock for the occurrence of clonic, flexor tonic, or extensor tonic convulsions, or death and the ED50 was determined for each compound as the dose which inhibited the occurrence of extensor tonic convulsions in one half of the animals immediately after the electroshock. For comparison, 18 milliamperes was usually sufficient to produce extensor tonic convulsions in about half of the control animals; at 50 milliamperes, almost all control animals (receiving vehicle only) died.

In series [2] the test system is maximal electroshock seizure. The settings on record: racemic form; reported in U.S. Pat. No. 4,379,165; cited from earlier work.
The nature of a further series: in vivo. Set-up: species or system mice. The settings on record: mouse, po. As to the method: (§2) The compounds were also evaluated for determining toxic potential. In determining toxic potential as manifested by neurological deficit, ataxia, or sedation, the "horizontal screen" (H.S.) was employed. This test is well accepted as a measure of impaired motor function in mice. The methodology was identical to that taught by Coughenour, et al., Pharmacology, Biochemistry and Behavior, 6, 351 (1977). For each compound, the ED50 was determined as the dose which caused one half of the animals to fail to reach the top of the screen. The compounds were administered to the mice in the same manner as described above for the electroshock assay 60 minutes before they were tested in the horizontal screen assay.

A short description of series [3]: protective index (P.I.), ratio of horizontal screen ED50 over electroshock ED50. To be noted: mouse, in vivo, po; mice, gavage; read-out: Protective Index (H.S. ED50 /E.S. ED50). Format: in vivo, mice. How it is done: as §1, §2
(§3) From the above two test systems, the protective index (P.I.) can be calculated as the ratio of the horizontal screen ED50 over the ED50 of the electroshock assay. Thus, a large P.I. is indicative of a broader therapeutic range. A large P.I. thus provides a wide margin of safety allowing greater flexibility in treating epilepsy and other convulsive disorders.

A further series deals with mice. Described as above. To be noted: enantiomers compared with each other or the racemate. Format: in vivo. As to the method:
as §1, §2, §3

Another series deals with seizures in man. To be noted: cited from earlier work.

Structures are written as SMILES. Bounds are passed on as bounds.

For the compound `CC(NC(=O)c1ccc(N)cc1)c1ccccc1` (racemic) [(R,S), (R,S)-4-amino-N-(1-phenylethyl)benzamide], it took a dose of 12.5 mg/kg to reach the 50% effect level in series [1] (ED50). The “protective index (P.I.), TD50 (Rotorod) to ED50 (maximal electroshock seizure)” value in series [2] is reported as 9.48. The compound further registered a TD50 at 1 h in the series “in vivo” of 105 mg/kg. Besides, the selectivity ratio at 1 h in series [3] was determined as 8.4.

With `C[C@@H](NC(=O)c1ccc(N)cc1)c1ccccc1` [(R), (R)-4-amino-N-(1-phenylethyl)benzamide], the ED50 in series [1] came to 17.8 mg/kg. The compound further yielded a TD50 at 1 h in “in vivo” of 480 mg/kg. In addition, the “protective index (in words)” value with mice is recorded as “increased protective index ratio”. In addition, the selectivity ratio at 1 h in series [3] was 27.

Take `C[C@H](NC(=O)c1ccc(N)cc1)c1ccccc1` [(S), (S)-4-amino-N-(1-phenylethyl)benzamide]: the “anticonvulsant potency (in words)” value in series [1] ((S)-isomer compared with (R)-isomer and racemate) is on record as “more potent as an anticonvulsant agent than either the (R)-isomer or the racemate”. Moreover, in series [1], the ED50 amounted to 10 mg/kg. Also, in the series “in vivo”, the TD50 at 1 h is 141 mg/kg. In series [3], the selectivity ratio at 1 h turned out to be 14.1.

`O=C1NC(=O)C(c2ccccc2)(c2ccccc2)N1` [phenytoin]: the “plasma level at which seizures are controlled” value in the series with seizures in man (Gilman, Goodman, and Gilman, 6th Ed.) is at least 10 µg/mL. For the same compound, in the series on seizures in man, the “plasma level at which ataxia is obvious” value was 30000 ng/mL, the “plasma level at which lethargy is apparent” value is reported as “about 40 mcg./ml” and the “plasma level at which nystagmus is seen” value is “around 20 mcg./ml”.

Source of the values: patent US4629740A, “Anticonvulsant agents” (Eli Lilly and Company, priority 1984, dated 1986).
